Measured values from ChEMBL document CHEMBL1159093, “Discovery and optimization of RO-85, a novel drug-like, potent, and selective P2X3 receptor antagonist” (Bioorg Med Chem Lett, 2010).

Tests used:
[1] = target: Adenosine receptor A3 (Homo sapiens) (UniProt P0DMS8); assay: Displacement of [125I]AB-MECA from human recombinant A3 receptor expressed in HEK293 cells at 10 uM after 120 mins by scintillation counting; type: cell-based
[2] = target: D(1B) dopamine receptor (Homo sapiens) (UniProt P21918); assay: Displacement of [3H]SCH 23390 from human recombinant dopamine D5 receptor expressed in rat GH4 cells at 10 uM after 60 mins by scintillation counting; type: cell-based
[3] = organism: Rattus norvegicus; assay: Displacement of [3H]GABA from GABA receptor in rat cerebral cortex at 10 uM after 60 mins by scintillation counting; type: tissue-based
[4] = target: Histamine H1 receptor (Homo sapiens) (UniProt P35367); assay: Displacement of [3H]pyrilamine from human recombinant histamine H1 receptor expressed in HEK293 cells at 10 uM after 60 mins by scintillation counting; type: cell-based
Chain of Histamine H1 receptor (Homo sapiens) (P35367 whole entry): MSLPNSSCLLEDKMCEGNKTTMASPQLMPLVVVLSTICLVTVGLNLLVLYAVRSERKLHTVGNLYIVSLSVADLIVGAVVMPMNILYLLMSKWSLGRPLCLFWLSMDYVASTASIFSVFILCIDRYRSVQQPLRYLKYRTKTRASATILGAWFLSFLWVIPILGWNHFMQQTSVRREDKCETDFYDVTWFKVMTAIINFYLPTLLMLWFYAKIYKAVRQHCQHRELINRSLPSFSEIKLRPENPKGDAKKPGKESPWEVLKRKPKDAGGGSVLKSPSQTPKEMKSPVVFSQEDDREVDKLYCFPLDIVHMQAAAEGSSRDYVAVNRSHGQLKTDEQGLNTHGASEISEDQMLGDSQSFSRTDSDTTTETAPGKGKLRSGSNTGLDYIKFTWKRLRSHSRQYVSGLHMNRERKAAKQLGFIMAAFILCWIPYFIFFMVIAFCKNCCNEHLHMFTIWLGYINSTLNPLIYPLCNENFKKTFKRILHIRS

[5] = target: Muscarinic acetylcholine receptor M3 (Homo sapiens) (UniProt P20309); assay: Displacement of [3H]4-DAMP from human recombinant muscarinic M3 receptor expressed in CHO cells at 10 uM after 60 mins by scintillation counting; type: cell-based
[6] = target: Muscarinic acetylcholine receptor M4 (Homo sapiens) (UniProt P08173); assay: Displacement of [3H]4-DAMP from human recombinant muscarinic M4 receptor expressed in CHO cells at 10 uM after 60 mins by scintillation counting; type: cell-based
[7] = organism: Rattus norvegicus; assay: Displacement of [3H]a,b-MeATP from P2X receptor in rat urinary bladder at 10 uM after 120 mins by scintillation counting
[8] = target: 5-hydroxytryptamine receptor 2A (Homo sapiens) (UniProt P28223); assay: Displacement of [3H]ketanserin from human recombinant 5HT2A receptor expressed in HEK293 cells at 10 uM after 60 mins by scintillation counting; type: cell-based
Chain of 5-hydroxytryptamine receptor 2A (Homo sapiens) (P28223 whole entry): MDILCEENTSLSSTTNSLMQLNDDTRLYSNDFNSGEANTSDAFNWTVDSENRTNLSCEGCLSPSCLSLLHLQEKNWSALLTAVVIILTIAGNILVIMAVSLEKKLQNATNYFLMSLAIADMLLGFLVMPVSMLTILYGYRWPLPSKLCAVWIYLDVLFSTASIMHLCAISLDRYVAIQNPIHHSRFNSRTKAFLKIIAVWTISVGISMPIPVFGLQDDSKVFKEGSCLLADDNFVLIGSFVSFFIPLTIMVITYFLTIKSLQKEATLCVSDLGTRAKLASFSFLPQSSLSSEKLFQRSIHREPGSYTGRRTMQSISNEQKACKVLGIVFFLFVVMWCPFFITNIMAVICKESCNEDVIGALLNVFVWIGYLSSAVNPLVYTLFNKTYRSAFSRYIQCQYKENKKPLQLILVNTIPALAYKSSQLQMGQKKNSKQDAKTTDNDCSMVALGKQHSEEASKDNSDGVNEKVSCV

[9] = target: 5-hydroxytryptamine receptor 2B (Homo sapiens) (UniProt P41595); assay: Displacement of [125I](+/-)DOI from human recombinant 5HT2B receptor expressed in CHO cells at 10 uM after 60 mins by scintillation counting; type: cell-based
Chain of 5-hydroxytryptamine receptor 2B (Homo sapiens) (P41595 whole entry): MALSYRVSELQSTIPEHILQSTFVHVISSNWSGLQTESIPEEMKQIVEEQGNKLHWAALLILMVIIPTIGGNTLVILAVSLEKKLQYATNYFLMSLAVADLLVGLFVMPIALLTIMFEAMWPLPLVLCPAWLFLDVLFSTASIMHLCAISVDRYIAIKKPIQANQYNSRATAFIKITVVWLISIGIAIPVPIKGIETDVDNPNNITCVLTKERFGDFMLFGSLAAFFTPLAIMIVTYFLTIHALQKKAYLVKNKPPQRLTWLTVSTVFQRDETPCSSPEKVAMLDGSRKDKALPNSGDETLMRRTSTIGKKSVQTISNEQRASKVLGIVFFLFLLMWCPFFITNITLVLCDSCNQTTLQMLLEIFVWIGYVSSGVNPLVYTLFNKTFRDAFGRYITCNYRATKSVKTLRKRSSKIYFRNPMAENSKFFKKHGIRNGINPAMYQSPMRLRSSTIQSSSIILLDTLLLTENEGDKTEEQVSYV

[10] = target: 5-hydroxytryptamine receptor 3A (Homo sapiens) (UniProt P46098); assay: Displacement of [3H]BRL43694 from human recombinant 5HT3 receptor expressed in CHO cells at 10 uM after 120 mins by scintillation counting; type: cell-based
[11] = target: 5-hydroxytryptamine receptor 5A (Homo sapiens) (UniProt P47898); assay: Displacement of [3H]LSD from human recombinant 5HT5A receptor expressed in HEK293 cells at 10 uM after 120 mins by scintillation counting; type: cell-based
[12] = target: 5-hydroxytryptamine receptor 6 (Homo sapiens) (UniProt P50406); assay: Displacement of [3H]LSD from human recombinant 5HT6 receptor expressed in CHO cells at 10 uM after 120 mins by scintillation counting; type: cell-based
[13] = target: Type-2 angiotensin II receptor (Homo sapiens) (UniProt P50052); assay: Displacement of [125I]CGP 42112A from human recombinant AT2 receptor expressed in HEK293 cells at 10 uM after 4 hrs by scintillation counting; type: cell-based
Chain of Type-2 angiotensin II receptor (Homo sapiens) (P50052 whole entry): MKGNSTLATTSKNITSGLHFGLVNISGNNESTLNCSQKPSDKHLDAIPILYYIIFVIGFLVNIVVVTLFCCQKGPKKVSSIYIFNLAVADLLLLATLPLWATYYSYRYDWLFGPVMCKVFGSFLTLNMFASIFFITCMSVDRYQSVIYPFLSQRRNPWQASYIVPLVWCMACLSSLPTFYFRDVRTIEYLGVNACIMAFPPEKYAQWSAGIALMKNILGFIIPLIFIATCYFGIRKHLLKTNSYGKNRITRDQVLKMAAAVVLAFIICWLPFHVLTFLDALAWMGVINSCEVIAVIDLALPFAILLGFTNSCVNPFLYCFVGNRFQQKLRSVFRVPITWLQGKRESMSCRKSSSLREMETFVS

[14] = target: C-X-C chemokine receptor type 2 (Homo sapiens) (UniProt P25025); assay: Displacement of [125I]IL-8 from human recombinant CXCR2 receptor expressed in HEK293 cells at 10 uM after 60 mins by scintillation counting; type: cell-based
Chain of C-X-C chemokine receptor type 2 (Homo sapiens) (P25025 whole entry): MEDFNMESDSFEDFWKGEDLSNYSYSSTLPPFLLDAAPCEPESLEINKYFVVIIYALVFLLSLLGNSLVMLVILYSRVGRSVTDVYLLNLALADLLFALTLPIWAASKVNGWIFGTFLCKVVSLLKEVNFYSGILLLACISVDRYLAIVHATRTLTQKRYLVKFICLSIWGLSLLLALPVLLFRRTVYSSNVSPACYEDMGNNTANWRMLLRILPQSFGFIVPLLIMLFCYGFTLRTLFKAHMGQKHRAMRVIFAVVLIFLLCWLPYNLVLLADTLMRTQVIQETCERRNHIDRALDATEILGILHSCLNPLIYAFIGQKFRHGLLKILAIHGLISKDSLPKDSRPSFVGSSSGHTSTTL

[15] = target: Vasopressin V1a receptor (Homo sapiens) (UniProt P37288); assay: Displacement of [3H]AVP from human recombinant vasopressin V1a receptor expressed in CHO cells at 10 uM after 60 mins by scintillation counting; type: cell-based
[16] = target: Glucocorticoid receptor (Homo sapiens) (UniProt P04150); assay: Displacement of [3H]dexamethasone from glucocorticoid receptor in human IM9 cells at 10 uM after 6 hrs by scintillation counting; type: cell-based; conditions: IM-9
[17] = organism: Rattus norvegicus; assay: Displacement of [35S]TBPS from GABA gated chloride channel in rat cerebral cortex at 10 uM after 120 mins by scintillation counting; type: tissue-based
[18] = organism: Rattus norvegicus; assay: Displacement of [3H]batrachotoxinin from sodium channel site2 in rat cerebral cortex at 10 uM after 60 mins by scintillation counting; type: tissue-based
[19] = target: L-type calcium channel (verapamil binding site) (Rattus norvegicus, UniProt P22002+P27732+Q02485); assay: Displacement of [3H]verapamil from verapamil binding site of L-type calcium channel in rat cerebral cortex at 10 uM after 120 mins by scintillation counting; type: tissue-based; conditions: probe [3H]verapamil, read-out: Activity
[20] = target: Small conductance calcium-activated potassium channel (Rattus norvegicus) (UniProt P70604+P70606+P70605); assay: Displacement of [125I]apamin from SK […] channel in rat cerebral cortex at 10 uM after 60 mins by scintillation counting; type: tissue-based
[21] = target: Sodium-dependent dopamine transporter (Homo sapiens) (UniProt Q01959); assay: Displacement of [3H]BTCP from human recombinant DAT expressed in CHO cells at 10 uM after 120 mins by scintillation counting; type: cell-based
[22] = target: Sodium-dependent serotonin transporter (Homo sapiens) (UniProt P31645); assay: Displacement of [3H]imipramine from human recombinant SERT expressed in CHO cells at 10 uM after 60 mins by scintillation counting; type: cell-based
[23] = Protein binding in rat plasma; type: ADME, cell-free; conditions: read-out: PPB (converted)
[24] = Metabolic stability in human liver microsomes; type: ADME, Microsome; conditions: read-out: Stability
[25] = Half life in po dosed rat; type: ADME, organism-based; conditions: in vivo
[26] = target: P2X purinoceptor 1 (Homo sapiens, UniProt P51575); assay: Antagonist activity at P2X1 receptor; type: functional
Chain of P2X purinoceptor 1 (P51575 whole entry): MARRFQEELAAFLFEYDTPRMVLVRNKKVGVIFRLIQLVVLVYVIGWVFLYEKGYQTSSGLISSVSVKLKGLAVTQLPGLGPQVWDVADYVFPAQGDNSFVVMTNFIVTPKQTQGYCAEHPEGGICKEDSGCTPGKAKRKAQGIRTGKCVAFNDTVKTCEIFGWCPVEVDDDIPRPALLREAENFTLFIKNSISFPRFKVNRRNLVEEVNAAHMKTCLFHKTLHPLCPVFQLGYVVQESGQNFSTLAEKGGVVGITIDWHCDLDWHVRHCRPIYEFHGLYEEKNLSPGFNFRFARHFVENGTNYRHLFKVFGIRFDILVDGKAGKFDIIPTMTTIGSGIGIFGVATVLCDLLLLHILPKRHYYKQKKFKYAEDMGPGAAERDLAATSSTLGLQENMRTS

[27] = target: P2X purinoceptor 4 (Homo sapiens, UniProt Q99571); assay: Antagonist activity at P2X4 receptor; type: functional
Chain of P2X purinoceptor 4 (Q99571 whole entry): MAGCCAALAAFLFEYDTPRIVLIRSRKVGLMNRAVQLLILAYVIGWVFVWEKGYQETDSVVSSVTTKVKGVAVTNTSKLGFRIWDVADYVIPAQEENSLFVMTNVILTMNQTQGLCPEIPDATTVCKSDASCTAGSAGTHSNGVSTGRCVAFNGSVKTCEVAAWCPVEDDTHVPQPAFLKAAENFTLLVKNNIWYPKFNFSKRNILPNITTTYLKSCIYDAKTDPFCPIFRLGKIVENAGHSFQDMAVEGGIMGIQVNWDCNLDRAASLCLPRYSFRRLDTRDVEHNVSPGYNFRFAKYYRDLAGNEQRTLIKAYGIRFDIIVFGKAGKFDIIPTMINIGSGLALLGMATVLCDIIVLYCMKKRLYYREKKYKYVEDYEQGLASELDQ

[28] = target: P2X purinoceptor 6 (Homo sapiens, UniProt O15547); assay: Antagonist activity at P2X6 receptor; type: functional
Chain of P2X purinoceptor 6 (O15547 whole entry): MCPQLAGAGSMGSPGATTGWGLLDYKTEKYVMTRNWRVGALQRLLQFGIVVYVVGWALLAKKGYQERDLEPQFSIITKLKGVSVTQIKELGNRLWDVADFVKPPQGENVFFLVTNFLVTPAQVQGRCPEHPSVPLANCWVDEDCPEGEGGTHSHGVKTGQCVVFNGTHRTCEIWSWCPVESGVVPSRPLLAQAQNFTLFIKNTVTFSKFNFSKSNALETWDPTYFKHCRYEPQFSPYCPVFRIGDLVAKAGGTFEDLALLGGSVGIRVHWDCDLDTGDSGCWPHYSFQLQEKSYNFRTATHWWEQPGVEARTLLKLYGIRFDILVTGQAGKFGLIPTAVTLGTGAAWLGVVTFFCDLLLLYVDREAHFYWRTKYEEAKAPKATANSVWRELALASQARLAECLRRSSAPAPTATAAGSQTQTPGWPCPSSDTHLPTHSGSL

[29] = target: P2X purinoceptor 7 (Homo sapiens, UniProt Q99572); assay: Antagonist activity at P2X7 receptor; type: functional
Chain of P2X purinoceptor 7 (Q99572 whole entry): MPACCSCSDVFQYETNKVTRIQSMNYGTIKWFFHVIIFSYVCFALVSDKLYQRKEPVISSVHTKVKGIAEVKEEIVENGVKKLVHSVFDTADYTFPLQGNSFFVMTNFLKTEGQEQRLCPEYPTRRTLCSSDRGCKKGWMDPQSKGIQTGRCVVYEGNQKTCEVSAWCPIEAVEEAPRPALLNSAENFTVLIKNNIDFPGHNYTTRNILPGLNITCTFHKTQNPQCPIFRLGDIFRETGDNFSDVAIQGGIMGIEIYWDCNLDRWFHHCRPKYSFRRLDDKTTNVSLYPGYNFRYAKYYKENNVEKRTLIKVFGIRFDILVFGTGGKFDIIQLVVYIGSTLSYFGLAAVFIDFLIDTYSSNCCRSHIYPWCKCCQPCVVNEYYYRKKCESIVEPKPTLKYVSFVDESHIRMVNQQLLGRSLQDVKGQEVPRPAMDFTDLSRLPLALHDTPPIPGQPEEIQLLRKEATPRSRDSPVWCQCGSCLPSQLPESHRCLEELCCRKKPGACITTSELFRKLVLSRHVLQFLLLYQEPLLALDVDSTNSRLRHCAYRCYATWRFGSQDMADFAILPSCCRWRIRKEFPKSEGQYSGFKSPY

[30] = target: Neuropeptide Y receptor type 1 (Homo sapiens) (UniProt P25929); assay: Displacement of [125I]peptideYY from neuropeptide Y1 receptor in human SK-N-MC cells at 10 uM after 120 mins by scintillation counting; type: cell-based
[31] = target: Nociceptin receptor (Homo sapiens) (UniProt P41146); assay: Displacement of [3H]nociceptin from human recombinant NOP receptor expressed in HEK293 cells at 10 uM after 60 mins by scintillation counting; type: cell-based
Chain of Nociceptin receptor (Homo sapiens) (P41146 whole entry): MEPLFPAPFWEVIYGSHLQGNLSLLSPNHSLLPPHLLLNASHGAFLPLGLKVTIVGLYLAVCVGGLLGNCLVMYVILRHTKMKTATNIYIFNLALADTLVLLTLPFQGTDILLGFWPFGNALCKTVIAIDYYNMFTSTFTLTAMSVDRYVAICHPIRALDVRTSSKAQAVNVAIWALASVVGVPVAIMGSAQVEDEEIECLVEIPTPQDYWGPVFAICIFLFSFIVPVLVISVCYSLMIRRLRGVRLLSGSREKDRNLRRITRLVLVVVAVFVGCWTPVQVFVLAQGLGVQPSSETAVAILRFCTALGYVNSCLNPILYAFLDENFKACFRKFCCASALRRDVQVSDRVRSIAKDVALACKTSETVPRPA

Chain of Adenosine receptor A3 (Homo sapiens) (P0DMS8 whole entry): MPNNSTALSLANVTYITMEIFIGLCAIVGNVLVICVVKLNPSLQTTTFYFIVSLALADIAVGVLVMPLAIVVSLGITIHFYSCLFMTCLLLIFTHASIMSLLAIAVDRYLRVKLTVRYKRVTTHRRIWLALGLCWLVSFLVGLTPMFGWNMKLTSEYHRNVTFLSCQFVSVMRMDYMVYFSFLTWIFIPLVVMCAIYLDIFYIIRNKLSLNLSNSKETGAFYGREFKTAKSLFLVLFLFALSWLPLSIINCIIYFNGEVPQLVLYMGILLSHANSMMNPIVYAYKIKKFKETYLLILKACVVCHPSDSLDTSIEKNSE

SMILES: CC(=O)N1CCN(C[C@@H](C)NC(=O)c2cc3c(-c4ccccc4)nn(C)c3s2)CC1
- Activity [1]: > 50%
- Activity [2]: > 50%
- Activity [3]: > 50%
- Activity [4]: > 50%
- Activity [5]: > 50%
- Activity [6]: > 50%
- Activity [7]: > 50%
- Activity [8]: > 50%
- Activity [9]: > 50%
- Activity [10]: > 50%
- Activity [11]: > 50%
- Activity [12]: > 50%
- Activity [13]: > 50%
- Activity [14]: > 50%
- Activity [15]: > 50%
- Activity [16]: > 50%
- Activity [17]: > 50%
- Activity [18]: > 50%
- inhibition at 2 h, 10 µM [19]: > 50%
- Activity [20]: > 50%
- Activity [21]: > 50%
- Activity [22]: > 50%
- fraction unbound [23]: 0.11
- microsomal CLint [24]: 1.7 µL/min/mg
- half-life [25]: 1.6 h
- IC50 [26]: > 10 µM
- IC50 [27]: > 10 µM
- IC50 [28]: > 10 µM
- IC50 [29]: > 10 µM
- Activity [30]: > 50%
- Activity [31]: > 50%
